Results taken from patent US5254533A, “Elfamycin” (Rhone-Poulenc Rorer S.A., priority 1990, dated 1993).
Entries after “also recorded” stand apart in the source; their conditions may differ.

Assays:
[1] = Use as a growth factor in piglets (Example 6); type: in vivo, weaned Large-White Belgian Landrace crossed piglets; conditions: for Final weight: control 24.7
Text: 130 weaned Large-White Belgian Landrace crossed piglets were used. The experiment began 2 weeks after weaning of the animals, i.e. at a mean age of 42 days.
The animals received the experimental feed ad libitum in the form of granules 2.5 mm in diameter.
The animals were weighed at the beginning, middle and end of the experiment. The consumptions were noted every week.
Tables 7, 8 and 9 respectively show the percentage composition and the characteristics of the diets, the percentage composition of the CMV and the percentage composition of the premixes.
The results are shown in Table 10 for the period 0-14 days, Table 11 for the period 14-28 days and Table 12 for the period 0-28 days.

[2] = test system: Pseudomonas aeruginosa IP A 237; experiment: MIC, antibacterial activity (agar dilution); type: cell-based; conditions: IPA237, Mueller Hinton Agar, about 18 h at about 37° C
[3] = test system: Bacteroides fragilis 479R; experiment: MIC, antibacterial activity (agar dilution); type: cell-based; conditions: anaerobic, Mueller Hinton Agar + 2% Fildes, about 48 h at about 37° C
Streptococcus uberis 3 = experiment: MIC, antibacterial activity (agar dilution); type: cell-based; conditions: Mueller Hinton Agar, about 18 h at about 37° C
[4] = test system: Staphylococcus aureus Weichbrodt; experiment: MIC, antibacterial activity (agar dilution); type: cell-based; conditions: Mueller Hinton Agar, about 18 h at about 37° C
[5] = test system: Klebsiella pneumoniae Caroli; experiment: MIC, antibacterial activity (agar dilution); type: cell-based; conditions: Mueller Hinton Agar, about 18 h at about 37° C
Staphylococcus epidermis = experiment: MIC, antibacterial activity (agar dilution); type: cell-based; conditions: Mueller Hinton Agar, about 18 h at about 37° C
[6] = test system: Staphylococcus aureus 209P; experiment: MIC, antibacterial activity (agar dilution); type: cell-based; conditions: Mueller Hinton Agar, about 18 h at about 37° C
[7] = test system: Bacteroides fragilis ATCC 25285; experiment: MIC, antibacterial activity (agar dilution); type: cell-based; conditions: ATCC25285, anaerobic, Mueller Hinton Agar + 2% Fildes, about 48 h at about 37° C
Streptococcus uberis 8 = experiment: MIC, antibacterial activity (agar dilution); type: cell-based; conditions: Mueller Hinton Agar, about 18 h at about 37° C
Streptococcus bovis 5 = experiment: MIC, antibacterial activity (agar dilution); type: cell-based; conditions: Streptococcus equinus, Mueller Hinton Agar, about 18 h at about 37° C
[8] = test system: Escherichia coli INRA ECi; experiment: MIC, antibacterial activity (agar dilution); type: cell-based; conditions: Mueller Hinton Agar, about 18 h at about 37° C
[9] = Use as a growth factor in weaned piglets (Example 5); type: in vivo, weaned Large-White Belgian Landrace crossed piglets; conditions: for Initial weight: start of period 14-28 days; for Index of consumption: consumption/weight gain ratio
[10] = test system: Proteus mirabilis Villette; experiment: MIC, antibacterial activity (agar dilution); type: cell-based; conditions: Mueller Hinton Agar, about 18 h at about 37° C
[11] = test system: Staphylococcus aureus S tA 2; experiment: MIC, antibacterial activity (agar dilution); type: cell-based; conditions: STA2, Mueller Hinton Agar, about 18 h at about 37° C
Pasterella multocida IP = experiment: MIC, antibacterial activity (agar dilution); type: cell-based; conditions: Mueller Hinton Agar, about 18 h at about 37° C
Staphylococcus faecalis = experiment: MIC, antibacterial activity (agar dilution); type: cell-based; conditions: Mueller Hinton Agar, about 18 h at about 37° C
[12] = test system: Enterobacter cloacae IP 085; experiment: MIC, antibacterial activity (agar dilution); type: cell-based; conditions: IP085, Mueller Hinton Agar, about 18 h at about 37° C
[13] = test system: Bacteroides melaninogenicus ATCC 15930; experiment: MIC, antibacterial activity (agar dilution); type: cell-based; conditions: Prevotella intermedia, ATCC15930; anaerobic, Mueller Hinton Agar + 2% Fildes, about 48 h at about 37° C
Proteus vulgaris IP A272 = experiment: MIC, antibacterial activity (agar dilution); type: cell-based; conditions: IPA272, Mueller Hinton Agar, about 18 h at about 37° C
[14] = test system: Staphylococcus aureus S tA 1; experiment: MIC, antibacterial activity (agar dilution); type: cell-based; conditions: STA1, Mueller Hinton Agar, about 18 h at about 37° C
Streptococcus bovis 3 = experiment: MIC, antibacterial activity (agar dilution); type: cell-based; conditions: Streptococcus equinus, Mueller Hinton Agar, about 18 h at about 37° C

C/C=C\C=C\C1OC(O)(C(CC)C(=O)NC/C=C/C=C(\C)C(OC)C(C)C2CC(O)C(/C=C/C=C/C=C/C(=O)O)O2)C(O)C(O)C1(C)C (centres unmarked) [formula (II)]
Index of consumption ([1]; 10 ppm in feed, 0-14 days, control 1.76): 1.70
Weight gain ([1]; 10 ppm in feed, 0-14 days, control 368): 418 g/day
Consumption ([1]; 10 ppm in feed, 0-14 days, control 645): 694 g/day
Index of consumption ([1]; 10 ppm in feed, 0-28 days, control 1.80): 1.72
Weight gain ([1]; 10 ppm in feed, 0-28 days, control 474): 533 g/day
Consumption ([1]; 10 ppm in feed, 0-28 days, control 852): 914 g/day
Index of consumption ([1]; 10 ppm in feed, 14-28 days, control 1.84): 1.75
Weight gain ([1]; 10 ppm in feed, 14-28 days, control 579): 648 g/day
Consumption ([1]; 10 ppm in feed, 14-28 days, control 1059): 1133 g/day
Final weight ([1]; 10 ppm in feed, Table 11, 14-28 days): 26.4 kg
Final weight ([1]; 10 ppm in feed, Table 12, 0-28 days): 26.4 kg
Index of consumption ([1]; 20 ppm in feed, 0-14 days, control 1.76): 1.61
Weight gain ([1]; 20 ppm in feed, 0-14 days, control 368): 430 g/day
Consumption ([1]; 20 ppm in feed, 0-14 days, control 645): 689 g/day
Index of consumption ([1]; 20 ppm in feed, 0-28 days, control 1.80): 1.69
Weight gain ([1]; 20 ppm in feed, 0-28 days, control 474): 547 g/day
Consumption ([1]; 20 ppm in feed, 0-28 days, control 852): 927 g/day
Index of consumption ([1]; 20 ppm in feed, 14-28 days, control 1.84): 1.75
Weight gain ([1]; 20 ppm in feed, 14-28 days, control 579): 664 g/day
Consumption ([1]; 20 ppm in feed, 14-28 days, control 1059): 1164 g/day
Final weight ([1]; 20 ppm in feed, Table 11, 14-28 days): 26.8 kg
Final weight ([1]; 20 ppm in feed, Table 12, 0-28 days): 26.8 kg
Index of consumption ([1]; 40 ppm in feed, 0-14 days, control 1.76): 1.70
Weight gain ([1]; 40 ppm in feed, 0-14 days, control 368): 416 g/day
Consumption ([1]; 40 ppm in feed, 0-14 days, control 645): 701 g/day
Index of consumption ([1]; 40 ppm in feed, 0-28 days, control 1.80): 1.70
Weight gain ([1]; 40 ppm in feed, 0-28 days, control 474): 532 g/day
Consumption ([1]; 40 ppm in feed, 0-28 days, control 852): 900 g/day
Index of consumption ([1]; 40 ppm in feed, 14-28 days, control 1.84): 1.70
Weight gain ([1]; 40 ppm in feed, 14-28 days, control 579): 648 g/day
Consumption ([1]; 40 ppm in feed, 14-28 days, control 1059): 1099 g/day
Final weight ([1]; 40 ppm in feed, Table 11, 14-28 days): 26.4 kg
Final weight ([1]; 40 ppm in feed, Table 12, 0-28 days): 26.4 kg
MIC [2]: > 300 µg/mL
MIC [3]: > 100 µg/mL
MIC (Streptococcus uberis 3): 50 µg/mL
MIC [4]: > 300 µg/mL
MIC [5]: > 300 µg/mL
MIC (Staphylococcus epidermis): > 300 µg/mL
MIC [6]: > 300 µg/mL
MIC [7]: > 100 µg/mL
MIC (Streptococcus uberis 8): 100 µg/mL
MIC (Streptococcus bovis 5): 25 µg/mL
MIC [8]: > 300 µg/mL
Weight gain ([9]; 40 ppm in feed, 0-14 days, control 329): 360 g/day
Consumption ([9]; 40 ppm in feed, 0-14 days, control 614): 625 g/day
Weight gain ([9]; 40 ppm in feed, 0-28 days, control 445): 490 g/day
Consumption ([9]; 40 ppm in feed, 0-28 days, control 822): 847 g/day
Weight gain ([9]; 40 ppm in feed, 14-28 days, control 560): 620 g/day
Consumption ([9]; 40 ppm in feed, 14-28 days, control 1031): 1068 g/day
Intermediate Weight ([9]; 40 ppm in feed, Table 4, 0-14 days, control 15.3): 15.8 kg
Intermediate Weight ([9]; 40 ppm in feed, Table 5, 14-28 days, control 23.1): 24.5 kg
Intermediate Weight ([9]; 40 ppm in feed, Table 6, 0-28 days, control 23.1): 24.5 kg
Initial weight ([9]; 40 ppm in feed, control 15.3): 15.8 kg
improvement in growth relative to the basic diet ([9]; 40 ppm, overall period 0-28 days): 10%
performances of the animals (in words) ([9]; 60 ppm compared with the same product at 40 ppm, 0-28 days): somewhat behind those observed with the same product at 40 ppm
Weight gain ([9]; 60 ppm in feed, 0-14 days, control 329): 338 g/day
Consumption ([9]; 60 ppm in feed, 0-14 days, control 614): 599 g/day
Weight gain ([9]; 60 ppm in feed, 0-28 days, control 445): 463 g/day
Consumption ([9]; 60 ppm in feed, 0-28 days, control 822): 812 g/day
Weight gain ([9]; 60 ppm in feed, 14-28 days, control 560): 588 g/day
Consumption ([9]; 60 ppm in feed, 14-28 days, control 1031): 1026 g/day
Intermediate Weight ([9]; 60 ppm in feed, Table 4, 0-14 days, control 15.3): 15.3 kg
Intermediate Weight ([9]; 60 ppm in feed, Table 5, 14-28 days, control 23.1): 23.5 kg
Intermediate Weight ([9]; 60 ppm in feed, Table 6, 0-28 days, control 23.1): 23.5 kg
Initial weight ([9]; 60 ppm in feed, control 15.3): 15.3 kg
Index of consumption ([9]; 40 ppm in feed, 0-14 days, control 1.88): 1.77
Index of consumption ([9]; 40 ppm in feed, 0-28 days, control 1.85): 1.73
Index of consumption ([9]; 40 ppm in feed, 14-28 days, control 1.86): 1.73
Index of consumption ([9]; 60 ppm in feed, 0-14 days, control 1.88): 1.78
Index of consumption ([9]; 60 ppm in feed, 0-28 days, control 1.85): 1.75
Index of consumption ([9]; 60 ppm in feed, 14-28 days, control 1.86): 1.74
effect on index of consumption (in words) ([9]; overall period 0-28 days): improved quite significantly
effect on consumption (in words) ([9]; overall period 0-28 days, listed as product II): did not bring about a significant improvement in consumption; also recorded: comparable to tylosin
MIC [10]: > 300 µg/mL
MIC [11]: > 300 µg/mL
MIC (Pasterella multocida IP): > 300 µg/mL
MIC (Staphylococcus faecalis): > 300 µg/mL
MIC [12]: > 300 µg/mL
MIC [13]: > 100 µg/mL
MIC (Proteus vulgaris IP A272): > 300 µg/mL
MIC [14]: > 300 µg/mL
MIC (Streptococcus bovis 3): > 300 µg/mL
